Source: publication PMC10449632, “Structural basis for translation inhibition by the glycosylated drosocin peptide” (Nature Chemical Biology, 2023)
No end group written: not given here. *: point of attachment. β‑D‑cellobiosyl = OC[C@H]1O[C@@H](O[C@H]2[C@H](O)[C@@H](O)[C@H](*)O[C@@H]2CO)[C@H](O)[C@@H](O)[C@@H]1O; β‑D‑lactosyl = OC[C@H]1O[C@@H](O[C@H]2[C@H](O)[C@@H](O)[C@H](*)O[C@@H]2CO)[C@H](O)[C@@H](O)[C@H]1O; β‑D‑maltosyl = OC[C@H]1O[C@H](O[C@H]2[C@H](O)[C@@H](O)[C@H](*)O[C@@H]2CO)[C@H](O)[C@@H](O)[C@@H]1O; α‑D‑GlcNAc = CC(=O)N[C@@H]1[C@@H](O)[C@H](O)[C@@H](CO)O[C@@H]1*; βGlc = OC[C@H]1O[C@@H](*)[C@H](O)[C@@H](O)[C@@H]1O; βGal = OC[C@H]1O[C@@H](*)[C@H](O)[C@@H](O)[C@H]1O

Columns and labels:
[1] = system: in vitro translation, E. coli PURExpress system, firefly luciferase (Fluc) mRNA; details: using the same system; cited from earlier work
Procedure: Unmodified wild-type drosocin and Dro-3P have been reported to inhibit in vitro translation reactions[25],[26]; however, the naturally occurring glycosylated forms of drosocin have not been previously tested. To investigate this, we compared the effect of increasing concentrations (0–150 μM) of modified Dro1 and Dro2 with unmodified Dro, Dro-3P and Api137 using a cell-free in vitro translation system and firefly luciferase (Fluc) mRNA as a template (Fig. 1e), as we have used previously for assessing the activity of other PrAMPs[4],[6],[8],[9],[32],[33].

[2] = system: E. coli Keio wt (BW25113); experiment: Antibiotic susceptibility (growth) assay, E. coli Keio wild-type; type: cell-based, Escherichia coli; details: 30 μM peptide; for Average of normalized growth: average of three biological replicates; for growth inhibition in rich medium: rich (LB) medium
From the text: (§1) Many PrAMPs use the SbmA transporter to pass through the E. coli inner membrane[4],[10],[31]; however, whether drosocin also uses SbmA remains, to our knowledge, unknown. To address this, we monitored the effect of the presence of diverse drosocin peptides (Fig. 1a,b and Supplementary Fig. 1a) on the growth of the wild-type E. coli strain BW25113 containing SbmA or lacking SbmA (ΔsbmA) (Fig. 1c,d). We compared unmodified drosocin (Dro) with various modified forms (Fig. 1a,b). The modified forms included the naturally occurring Dro1 and Dro2 that carry either a monosaccharide (α-D-GalNAc) or disaccharide (β-D-Gal(1→3)-α-D-GalNAc) attached to Thr11, respectively (Fig. 1b). In addition, we examined the previously reported[23],[24] drosocin derivatives bearing β-D-Maltosyl (Dro3), α-D-GlcNAc (Dro4), β-D-Gal (Dro5), β-D-Glc (Dro6), β-D-Lactosyl (Dro7) and β-D-Cellobiosyl (Dro8) modifications on Thr11 (Fig. 1a,b and Supplementary Fig. 1a). Finally, we also included in our analysis the synthetic unmodified drosocin derivative with proline substitutions at positions 7, 11 and 12 (Dro-3P) (Fig. 1a), which was previously reported to have similar antimicrobial activity to the monosaccharide form of drosocin[25]. Growth was monitored in both rich (LB) and minimal medium in the presence of 30 μM of each peptide and normalized with the growth in the absence of the compounds (Methods). […] We also observed no inhibition for Dro2 nor for any of the β-linked disaccharides (Dro3, Dro6 or Dro7). […] By contrast, all drosocin peptides inhibited growth of the E. coli BW25113 strain in minimal medium, albeit to different extents (Fig. 1d).
(§2) Strains E. coli Keio wild-type and E. coli Keio ΔsbmA used from the Keio knockout collection (Horizon, https://horizondiscovery.com). Wild-type E. coli SQ110 (ΔrrnGADBHC(ptRNA67))[47] and SQ171 (ΔrrnGADEHBC(pKK3535, ptRNA67))[47] strains and related mutants E. coli SQ110 A2059G and E. coli SQ171 A2503G were obtained from the previous Api137 study. E. coli strains SQ171 bearing A752G, U2609C and A752G:U2609C mutations[43] and E. coli SQ171 U2609G[48] were generated previously.
(§3) The susceptibility of E. coli strains to compounds was evaluated by monitoring the bacterial growth in presence of increasing concentrations of the compound of interest. In brief, bacteria were inoculated in a total volume of 100 μl of medium contained in a well of a 96-well microplate (round bottom, with cap, sterile; Sarstedt). The medium used was either LB, as rich medium, or ATCC medium (778 Davis and Mingioli glucose minimal medium), as minimal medium. Before inoculation, bacteria were grown up to exponential phase and then inoculated into the culture mix, containing selective antibiotic if necessary, with an initial optical density at 600 nm (OD600) of 0.05. Values measured from wells containing just the medium were used as a blank. The growth in each well was monitored by measuring the OD600 every 10 minutes for a total of 20 hours at 37 °C with shaking using a plate reader (Tecan Infinite 200 PRO). The inhibition resulting from a compound’s concentration was evaluated by normalizing the OD600 at t = 12 hours (corresponding to the end of the log phase) from the treated culture to the untreated one. For each compound, the concentrations tested were 5 μM, 10 μM and 30 μM. Each single titration assay was done in triplicate with individually prepared culture mixes. For each concentration, the standard deviation was calculated, taking into account each single replica and its specific technical error from the plate reader.

[3] = system: E. coli Keio ∆sbmA (BW25113 ΔsbmA); experiment: Antibiotic susceptibility (growth) assay, E. coli Keio ΔsbmA; type: cell-based, Escherichia coli; details: 30 μM peptide, average of three biological replicates
From the text: as §1, §2, §3

[4] = system: in vitro translation, E. coli PURExpress system, firefly luciferase (Fluc) mRNA; experiment: In vitro translation assay with Fluc reporter; type: biochemical, Escherichia coli
Procedure: To investigate this, we compared the effect of increasing concentrations (0–150 μM) of modified Dro1 and Dro2 with unmodified Dro, Dro-3P and Api137 using a cell-free in vitro translation system and firefly luciferase (Fluc) mRNA as a template (Fig. 1e), as we have used previously for assessing the activity of other PrAMPs[4],[6],[8],[9],[32],[33].
The in vitro translation assay was carried out as described previously[4],[8] using the E. coli PURExpress system (New England Biolabs (NEB), E6800S). Then, 1 µl of antibiotic solution was added to 5 µl of PURExpress reaction mix. Each reaction contained 10 ng μl^−1 of mRNA encoding the Fluc, which was in vitro transcribed from a pIVEX-2.3MCS vector containing the Fluc gene using T7 polymerase (Thermo Fisher Scientific). The reaction mix was incubated for 30 minutes at 32 °C while shaking (600 r.p.m.). Reactions were stopped with 5 µl of kanamycin (50 mg ml^−1) and transferred into a 96-well microplate (Greiner Lumitrac, non-binding, white, chimney). Next, 40 µl of luciferase assay substrate solution (Promega, E1501) was added, and luminescence was measured using a plate reader (Tecan Infinite 200 PRO). Nuclease-free water was added instead of antibiotic as control. Absolute luminescence values were normalized using reactions without antibiotic. All assays were done as triplicates with individually prepared reaction mix.

[5] = system: ribosomes at the stop codon of MLIF-UAA mRNA in the presence of RF1; experiment: Toeprinting assay on MLIF*-mRNA with RF1; type: biochemical, Escherichia coli; details: for Relative stop band intensity signal: 30 μM compound, MLIF*-mRNA, plotted values
Procedure: (§4) To ascertain which step during protein synthesis is affected by drosocin, we performed toeprinting assays, where reverse transcription is used to monitor the position of ribosomes on a defined mRNA[34].
(§5) Toeprinting reactions were performed as described previously. In brief, reactions were performed with 6 μl of PURExpress ΔRF123 in vitro protein synthesis system (NEB) in the presence of 1× RF3 and either 1× or 10× of RF1 or RF2 (relative to the manufacturer’s recommendation). The reactions were carried out on an MLIF-UAA-toeprint template (5′-[…]-3′, ORF start codon and stop codon are underlined bold), containing T7 promoter, a ribosome binding site, an MLIF-coding ORF and the NV1* primer binding site. The template is a version of the ErmBL template with a truncated ORF and addition of a isoleucine coding codon at the third position in the ORF. The template was generated by polymerase chain reaction of two overlapping 77-nt- and 78-nt-long primers. The reactions contained 30 ng of the MLIF-UAA-toeprint DNA template. The reactions were supplemented with Api137, thiostrepton or one of the drosocin derivates as specified. The transcription–translation reactions were incubated for 15 minutes at 37 °C. The reverse transcription on the MLIF-short-UAA toeprint template was carried out using AMV RT and primer NV*1-Alexa 647 (5′-[…]-3′). The transcription–translation reactions were incubated with AMV RT and NV*1-Alexa 647 for 20 minutes at 37 °C. mRNA degradation was carried out by the addition of 1 µl of 5 M NaOH. The reactions were neutralized with 0.7 µl of 25% HCl, and nucleotide removal was performed with the QIAquick Nucleotide Removal Kit (Qiagen). The samples were dried under vacuum for 2 hours at 60 °C for subsequent gel electrophoresis. The 6% acrylamide gels were scanned on a Typhoon scanner (GE Healthcare).

[6] = system: ribosomes at the stop codon of MLIF-UAA mRNA in the presence of RF2; experiment: Toeprinting assay on MLIF*-mRNA with RF2; type: biochemical, Escherichia coli; details: Fig 1h, RF2 (10X), 30 μM compound, plotted values
Procedure: as §4, §5

Bac7: type I PrAMP of mammalian origin (RRIRPRPPRLPRPRPRPLPFPRPGPRPIPRPLPFPRPGPRPIPRPLPFPRPGPRPIPRP; Bactenecin 7; UniProt P19661 131-189, looked up)
IC50 [1]: < 1000 nM

Dro2: naturally occurring drosocin carrying disaccharide β-D-Gal(1→3)-α-D-GalNAc attached to Thr11 (GKPRPYSPRPTSHPRPIRV; not fully specified (residue 11); UniProt P36193 22-40, looked up)
Average of normalized growth ([2]; LB rich medium): 92% | Average of normalized growth ([2]; Minimal medium): 25% | growth inhibition in rich medium [2]: no inhibition | Average of normalized growth ([3]; LB rich medium): 96% | Average of normalized growth ([3]; Minimal medium): 101% | maximum inhibition of in vitro translation ([4]; at the highest concentration tested of 150 μM, Fluc mRNA, luminescence): 40% | Relative stop band intensity signal ([5]; Fig 1f, RF1 (1X)): 0.3007 | Relative stop band intensity signal ([5]; Fig 1g, RF1 (10X)): 0.625 | Relative stop band intensity signal [6]: 0.06699

Dro3: drosocin derivative bearing β-D-Maltosyl on Thr11 (GKPRPYSPRPT(β‑D‑maltosyl)SHPRPIRV; UniProt P36193 22-40, looked up)
Average of normalized growth ([2]; LB rich medium): 97% | Average of normalized growth ([2]; Minimal medium): 41% | growth inhibition in rich medium [2]: no inhibition | Average of normalized growth ([3]; LB rich medium): 97% | Average of normalized growth ([3]; Minimal medium): 105% | Relative stop band intensity signal ([5]; Fig 1f, RF1 (1X)): 0.2727 | Relative stop band intensity signal ([5]; Fig 1g, RF1 (10X)): 0.5086 | Relative stop band intensity signal [6]: 0.02902

Dro4: drosocin derivative bearing α-D-GlcNAc on Thr11 (GKPRPYSPRPT(α‑D‑GlcNAc)SHPRPIRV; UniProt P36193 22-40, looked up)
Average of normalized growth ([2]; LB rich medium): 60% | Average of normalized growth ([2]; Minimal medium): 38% | growth inhibition in rich medium [2]: growth inhibition | Average of normalized growth ([3]; LB rich medium): 97% | Average of normalized growth ([3]; Minimal medium): 103% | Relative stop band intensity signal ([5]; Fig 1f, RF1 (1X)): 0.3375 | Relative stop band intensity signal ([5]; Fig 1g, RF1 (10X)): 0.6077 | stalling of ribosomes at the stop codon ([5]; toeprinting, 30 μM peptide, 1× or 10× RF1 (trend also with ten-fold RF2)): to a lesser extent | Relative stop band intensity signal [6]: 0.166

Dro5: drosocin derivative bearing β-D-Gal on Thr11 (GKPRPYSPRPT(βGal)SHPRPIRV; UniProt P36193 22-40, looked up)
Average of normalized growth ([2]; LB rich medium): 93% | Average of normalized growth ([2]; Minimal medium): 24% | growth inhibition in rich medium [2]: no inhibition | Average of normalized growth ([3]; LB rich medium): 100% | Average of normalized growth ([3]; Minimal medium): 107% | Relative stop band intensity signal ([5]; Fig 1f, RF1 (1X)): 0.2051 | Relative stop band intensity signal ([5]; Fig 1g, RF1 (10X)): 0.5557 | Relative stop band intensity signal [6]: 0.04941

Dro6: drosocin derivative bearing β-D-Glc on Thr11 (GKPRPYSPRPT(βGlc)SHPRPIRV; UniProt P36193 22-40, looked up)
Average of normalized growth ([2]; LB rich medium): 94% | Average of normalized growth ([2]; Minimal medium): 72% | growth inhibition in rich medium [2]: no inhibition | Average of normalized growth ([3]; LB rich medium): 99% | Average of normalized growth ([3]; Minimal medium): 106% | Relative stop band intensity signal ([5]; Fig 1f, RF1 (1X)): 0.04582 | Relative stop band intensity signal ([5]; Fig 1g, RF1 (10X)): 0.4077 | Relative stop band intensity signal [6]: 0.01282

Dro7: drosocin derivative bearing β-D-Lactosyl on Thr11 (GKPRPYSPRPT(β‑D‑lactosyl)SHPRPIRV; UniProt P36193 22-40, looked up)
Average of normalized growth ([2]; LB rich medium): 97% | Average of normalized growth ([2]; Minimal medium): 50% | growth inhibition in rich medium [2]: no inhibition | Average of normalized growth ([3]; LB rich medium): 101% | Average of normalized growth ([3]; Minimal medium): 109% | Relative stop band intensity signal ([5]; Fig 1f, RF1 (1X)): 0.1333 | Relative stop band intensity signal ([5]; Fig 1g, RF1 (10X)): 0.3035 | Relative stop band intensity signal [6]: 0.0472

Dro8: drosocin derivative bearing β-D-Cellobiosyl on Thr11 (GKPRPYSPRPT(β‑D‑cellobiosyl)SHPRPIRV; UniProt P36193 22-40, looked up)
Average of normalized growth ([2]; LB rich medium): 97% | Average of normalized growth ([2]; Minimal medium): 85% | Average of normalized growth ([3]; LB rich medium): 102% | Average of normalized growth ([3]; Minimal medium): 112% | Relative stop band intensity signal ([5]; Fig 1f, RF1 (1X)): 0.1518 | Relative stop band intensity signal ([5]; Fig 1g, RF1 (10X)): 0.3011 | Relative stop band intensity signal [6]: 0.03669

Dro-R18A (GKPRPYSPRPTSHPRPIAV; ends and bridges not checked; UniProt P36193 22-40, looked up, variant R18A)
activity in in vitro translation assays ([4]; Fluc reporter, increasing concentrations of peptide): complete loss of activity
